One series concerns Norovirus. Nature of the series: Antiviral activity against Norovirus. The format is functional.
Another series relates to unidentified adenovirus. The series is described as follows: Antiviral activity against Adenovirus. The format is functional.
The next series relates to Chikungunya virus. Nature of the series: Antiviral activity against Chikungunya virus. It is filed as functional.
The subject of series [1] is Dengue virus. Nature of the series: Antiviral activity against Dengue virus. It is filed as functional.
For another series, the system named is Enterovirus C. Nature of the series: Antiviral activity against Poliovirus. It is filed as functional.
The test system of another series is Punta Toro virus. The series is described as follows: Antiviral activity against Punta Toro virus. The format is functional.
Series [2] deals with Rift Valley fever virus. The series is described as follows: Antiviral activity against Rift Valley fever virus. It is filed as functional.
The test system of a further series is Tacaribe virus. Nature of the series: Antiviral activity against Tacaribe virus. The settings on record: Mammarenavirus tacaribeense. The format is functional.
A further series deals with Usutu virus. Nature of the series: Antiviral activity against Usutu virus. The format is functional.
Series [3] has as its system Venezuelan equine encephalitis virus. The series is described as follows: Antiviral activity against Venezuelan equine encephalitis virus. It is filed as functional.
In series [4] the test system is West Nile virus. The series is described as follows: Antiviral activity against West Nile virus. The format is functional.
Series [5] relates to Yellow fever virus. The series is described as follows: Antiviral activity against Yellow fever virus. The format is functional.
For series [6], the system named is Japanese encephalitis virus. The series is described as follows: Antiviral activity against Japanese encepahalitis virus. It is filed as functional.
For another series, the system named is Zika virus. The series is described as follows: Antiviral activity against Zika virus. The format is functional.
The subject of another series is Measles morbillivirus. The series is described as follows: Antiviral activity against measles virus. The format is functional.
A further series concerns Ebolavirus. Nature of the series: Antiviral activity against Ebolavirus. It is filed as functional. The conditions noted are these: for EC50: Orthoebolavirus.
The subject of the next series is Vero. The series is described as follows: (§1) Cytotoxicity against African green monkey Vero cells assessed as reduction in cell viability. It is filed as cell-based. The conditions noted are these: chlorocebus sabaeus, vero.
In series [7] the test system is Dengue virus. Nature of the series: Antiviral activity against Dengue virus infected in African green monkey Vero cells. It is filed as functional.
The test system of series [8] is Rift Valley fever virus. Nature of the series: Antiviral activity against Rift Valley fever virus infected in African green monkey Vero cells. It is filed as functional.
The subject of series [9] is Venezuelan equine encephalitis virus. The series is described as follows: Antiviral activity against Venezuelan equine encephalitis virus infected in African green monkey Vero cells. It is filed as functional.
Series [10] relates to West Nile virus. Nature of the series: Antiviral activity against West Nile virus infected in African green monkey Vero cells. The format is functional.
Series [11] concerns Yellow fever virus. The series is described as follows: Antiviral activity against Yellow fever virus infected in African green monkey Vero cells. The format is functional.
Series [12] has as its system Japanese encephalitis virus. The series is described as follows: Antiviral activity against Japanese encepahalitis virus infected in African green monkey Vero cells. The format is functional.
Series [13] is described as follows: as §1. It is filed as cell-based. The conditions noted are these: chlorocebus sabaeus, Vero cells.
The test system of a further series is Vaccinia virus. Nature of the series: Antiviral activity against vaccinia virus infected in PRK cells assessed as reduction in virus-induced cytopathic effect after 2 to 3 days. The format is functional, cell-based. The conditions noted are these: Orthopoxvirus vaccinia. For orientation: Protection from cytopathic effect is a common read-out in antiviral testing.

Series [14] relates to Vesicular stomatitis virus. The series is described as follows: Antiviral activity against vesicular stomatitis virus infected in PRK cells assessed as reduction in virus-induced cytopathic effect after 1 to 2 days. It is filed as functional, cell-based.

Structures are written as SMILES. Values after ≈ are worked out from the molar mass of the structure shown. Active and inactive are the calls of the source. No cut-off for these calls is given here. Some results are limits rather than exact numbers.

In general, EC50 refers to the midpoint of the concentration-response curve. In the series with Norovirus, `Nc1ncc(Br)c2c1ncn2[C@@H]1[C@@H](O)[C@@H](O)[C@H]2C[C@H]21` gave an EC50 of 3 µM. The result in the series on unidentified adenovirus, in the series with Chikungunya virus, in the series with Dengue virus [1], in the series on Enterovirus C, in the series on Punta Toro virus and in the series on Rift Valley fever virus [2] was inactive. Further, the result (in the series on Tacaribe virus; in the series with Usutu virus; in [3]; in the series on West Nile virus [4]; in the series on Yellow fever virus [5]; in [6]) was inactive. Also, the result in the series with Zika virus, in the series with Measles morbillivirus and with Ebolavirus was inactive. Besides, the Activity result in the series with Vero was “Non-Toxic”.

Usually IC50 stands for the point on the concentration scale where inhibition reaches its midpoint. The term CC50 denotes the concentration that lowers cell viability or growth by half. Consider `Nc1ncc(Br)c2c1ncn2[C@H]1C=C[C@H](O)[C@@H]1O`, for which the EC50 in the series on Norovirus turned out to be 33 µM; in the series with Ebolavirus, 8.3 mg/L (≈ 26.7 µM). Besides, the result in the series with unidentified adenovirus, in the series with Chikungunya virus, with Dengue virus [1], with Enterovirus C, in the series on Punta Toro virus and in the series with Rift Valley fever virus [2] was inactive. The outcome (in the series with Tacaribe virus; with Usutu virus; in series [3]; in the series on West Nile virus [4]; in the series on Yellow fever virus [5]; in series [6]) was inactive. Besides, the outcome in the series on Zika virus and in the series on Measles morbillivirus was inactive. Further, the IC50 with Dengue virus [7] is 7.2 mg/L (≈ 23.1 µM); in the series with Rift Valley fever virus [8] it was 31 mg/L (≈ 99.6 µM); in [9], 27 mg/L (≈ 86.8 µM); with West Nile virus [10] it was 32 mg/L (≈ 103 µM); with Yellow fever virus [11], 32 mg/L (≈ 103 µM); in series [12], 32 mg/L (≈ 103 µM). The CC50 in [13] was in the range of 27 to 32 mg/L (≈ 86.8 to 103 µM).

In turn, `Nc1nccc2c1ncn2[C@@H]1[C@@H](O)[C@@H](O)[C@H]2C[C@H]21` displayed an EC50 in the series on Norovirus greater than 100 µM. The outcome with unidentified adenovirus, with Chikungunya virus, with Dengue virus [1], in the series on Enterovirus C, in the series with Punta Toro virus and in the series on Rift Valley fever virus [2] was inactive. The outcome (in the series with Tacaribe virus; in the series with Usutu virus; in [3]; with West Nile virus [4]; with Yellow fever virus [5]; in series [6]) was inactive. Further, the outcome in the series with Zika virus, with Measles morbillivirus and in the series with Ebolavirus was inactive. The Activity result in the series on Vero was “Non-Toxic”.

As to `Nc1nccc2c1ncn2[C@H]1C=C[C@H](O)[C@@H]1O` (relative stereo), the EC50 in the series with Norovirus was found to be 4.2 µM; with Vaccinia virus it was 0.7 mg/L (≈ 3.01 µM); in [14], 0.2 mg/L (≈ 0.861 µM); in the series on Ebolavirus, 29.5 mg/L (≈ 127 µM). The result in the series on unidentified adenovirus, with Chikungunya virus, in the series on Dengue virus [1], in the series on Enterovirus C, in the series with Punta Toro virus and in the series with Rift Valley fever virus [2] was inactive. The outcome (in the series on Tacaribe virus; with Usutu virus; in [3]; with West Nile virus [4]; in the series with Yellow fever virus [5]; in series [6]) was inactive. For the same compound, the result in the series with Zika virus and with Measles morbillivirus was inactive. In the series with Vero, the Activity entry was “Non-Toxic”.

(Values after ChEMBL document CHEMBL4043174, “Synthesis, conformational study and antiviral activity of l-like neplanocin derivatives” (Bioorg Med Chem Lett, 2017).)
